Where a name gives a salt, the structure may show the parent alone.
Test system: plasma protein extravasation in the ureter in response to capsaicin
Assay: Capsaicin-induced plasma extravasation test
Format: in vivo, male Hartley guinea pigs
Settings: dosed orally 1 h before capsaicin challenge, guinea pig ureter
Protocol: In this test, antiinflammatory activity is determined as the percent inhibition of plasma protein extravasation in the ureter of male Hartley quinea pigs (weighing 300-350 g) in response to the intraperitoneal injection of capsaicin into anesthetized animals. The compounds of the present invention are dissolved in 0.1% methyl cellulose/water and dosed orally 1 h before capsaicin challenge. Evans Blue dye (30 mg/kg) is administered intravenously 5 min before capsaicin challenge. The animals are killed 10 min after capsaicin injection and both right and left ureters are removed. The Evans Blue dye is extracted and determined […]. In the above tests, compounds are considered active if the difference in response between the drug-treated animals and a control group receiving the vehicle alone is statistically significant.

SMILES | ED50 relative to ED50 of non-substituted compound (x) | ED50 (Cavia porcellus, po)
O=C(O)[C@@H]1CN2CC[C@H]1[C@H](OCc1cc(C(F)(F)F)cc(C(F)(F)F)c1)[C@@H]2C(c1ccccc1)c1ccccc1 [Example 2, (3S,4R,5S,6S)-3,5-bis(trifluoromethyl)benzyoxy)-6-diphenylmethyl-5-(-1-azabicyclo[2.2.2]octane-3-carboxylic acid hydrochloride] | more than 100 times lower | 
FC(F)(F)c1cc(CO[C@H]2C3CCN(CC3)[C@H]2C(c2ccccc2)c2ccccc2)cc(C(F)(F)F)c1 [compound (x)] |  | 2.4 mg/kg

— patent US5869499A, “Benzyloxyquinuclidines as substance P antagonists” (Pfizer Inc, priority 1993, dated 1999)
